# Measurements published in publication PMC11855827, “High-Throughput Screening of Five Compound Libraries for Anthelmintic Activity and Toxicity Leads to the Discovery of Two Flavonoid Compounds” (International Journal of Molecular Sciences, 2025).
# Read-outs that look alike come from different tables or passages of the source.
# System: C. elegans
# [1] = Table S2, C. elegans SS assay, 110 μM, 0 h, averages of 4 data points
# [2] = Table S2, C. elegans SS assay, 110 μM, 24 h, averages of 4 data points
SMILES,Percentage of motility inhibition 0 h [1],Percentage of motility inhibition 24 h [2],Percentage of motility inhibition 0 h (110 µM),Percentage of motility inhibition 24 h (110 µM)
COc1cc(O)cc(O)c1C(=O)/C=C/c1ccccc1 [Cardamonin],0%,13%,,
C=C1CC[C@H]2O[C@]2(C)CC[C@@H]2[C@@H]1CC2(C)C [Caryophyllene oxide],13%,13%,,
CC(=O)O.CC(=O)O.CC[C@H](C)C[C@H](C)CCCCCCCCC(=O)N[C@H]1C[C@@H](O)[C@@H](NCCN)NC(=O)[C@@H]2[C@@H](O)CCN2C(=O)[C@H]([C@H](O)CCN)NC(=O)[C@H]([C@H](O)[C@@H](O)c2ccc(O)cc2)NC(=O)[C@@H]2C[C@@H](O)CN2C(=O)[C@H]([C@@H](C)O)NC1=O [Caspofungin (Acetate)],27%,4%,,
CCC1=C[C@@H]2CN3CCc4c([nH]c5ccccc45)[C@@](C(=O)OC)(C2)[C@@H]13.O=C(O)C(O)C(O)C(=O)O [Catharanthine (Tartrate)],,,0%,12%
CCC1=C[C@@H]2CN3CCc4c([nH]c5ccccc45)[C@@](C(=O)OC)(C2)[C@@H]13 [Catharanthine],0%,0%,,
CC1(C)CC[C@]2(C(=O)O)CC[C@]3(C)C(=CC[C@@H]4[C@@]5(C)CC[C@H](O[C@@H]6OC[C@H](O)[C@H](O)[C@H]6O)[C@@](C)(CO)[C@@H]5CC[C@]43C)[C@@H]2C1 [Cauloside A],12%,24%,,
CC1(C)CC[C@]2(C(=O)O)CC[C@]3(C)C(=CC[C@@H]4[C@@]5(C)CC[C@H](O[C@@H]6OC[C@H](O)[C@H](O)[C@H]6O[C@@H]6O[C@H](CO)[C@@H](O)[C@H](O)[C@H]6O)[C@@](C)(CO)[C@@H]5CC[C@]43C)[C@@H]2C1 [Cauloside C],0%,10%,,
Cn1nnnc1SCC1=C(C(=O)[O-])N2C(=O)[C@@H](NC(=O)[C@H](OC=O)c3ccccc3)[C@H]2SC1.[Na+] [Cefamandole (nafate)],0%,0%,,
Cc1nnc(SCC2=C(C(=O)[O-])N3C(=O)[C@@H](NC(=O)Cn4cnnn4)[C@H]3SC2)s1.[Na+] [Cefazolin (sodium)],14%,0%,,
CO/N=C(\C(=O)N[C@@H]1C(=O)N2C(C(=O)OCOC(=O)C(C)(C)C)=C(/C=C\c3scnc3C)CS[C@H]12)c1csc(N)n1 [Cefditoren (Pivoxil)],36%,1%,,
CO/N=C(\C(=O)N[C@@H]1C(=O)N2C(C(=O)O)=C(C[N+]3(C)CCCC3)CS[C@H]12)c1csc(N)n1.Cl.O.[Cl-] [Cefepime (Dihydrochloride Monohydrate)],7%,1%,,
CO/N=C(\C(=O)N[C@@H]1C(=O)N2C(C(=O)OCOC(=O)C(C)(C)C)=C(C)CS[C@H]12)c1csc(N)n1.Cl [Cefetamet pivoxil (hydrochloride)],55%,17%,,
CO/N=C(\C(=O)N[C@@H]1C(=O)N2C(C(=O)O)=C(CSc3nnnn3C)CS[C@H]12)c1csc(N)n1.CO/N=C(\C(=O)N[C@@H]1C(=O)N2C(C(=O)O)=C(CSc3nnnn3C)CS[C@H]12)c1csc(N)n1.Cl [Cefmenoxime (hydrochloride)],15%,0%,,
CO[C@@]1(NC(=O)CSCC#N)C(=O)N2C(C(=O)[O-])=C(CSc3nnnn3C)CS[C@@H]21.[Na+] [Cefmetazole (sodium)],7%,25%,,
O=C([O-])C1=C(CSc2nnnn2CS(=O)(=O)[O-])CS[C@@H]2[C@H](NC(=O)[C@H](O)c3ccccc3)C(=O)N12.[Na+].[Na+] [Cefonicid (sodium)],0%,2%,,
CO/N=C(\C(=O)N[C@@H]1C(=O)N2C(C(=O)O)=C(Cn3ccc(=N)n3CCO)CS[C@H]12)c1csc(N)n1.O=S(=O)(O)O [Cefoselis (sulfate)],8%,0%,,
CO/N=C(\C(=O)N[C@@H]1C(=O)N2C(C(=O)[O-])=C(COC(C)=O)CS[C@H]12)c1csc(N)n1.[Na+] [Cefotaxime (sodium salt)],30%,34%,,
CN(C)CCn1nnnc1SCC1=C(C(=O)O)N2C(=O)[C@@H](NC(=O)Cc3csc(N)n3)[C@H]2SC1.Cl.Cl [Cefotiam (hydrochloride)],66%,37%,,
CO[C@@]1(NC(=O)Cc2cccs2)C(=O)N2C(C(=O)[O-])=C(COC(N)=O)CS[C@@H]21.[Na+] [Cefoxitin (sodium)],0%,0%,,
CO/N=C(\C(=O)N[C@@H]1C(=O)N2C(C(=O)[O-])=C(C[n+]3ccn4ncccc43)CS[C@H]12)c1nsc(N)n1.Cl [Cefozopran (hydrochloride)],10%,12%,,
Cc1cc(O)c(C(=O)N[C@@H](C(=O)N[C@@H]2C(=O)N3C(C(=O)[O-])=C(CSc4nnnn4C)CS[C@H]23)c2ccc(O)cc2)cn1.[Na+] [Cefpiramide (sodium)],0%,7%,,
CO/N=C(\C(=O)N[C@@H]1C(=O)N2C(C(=O)[O-])=C(C[n+]3cccc4c3CCC4)CS[C@H]12)c1csc(N)n1.O=S(=O)(O)O [Cefpirome (sulfate)],13%,0%,,
C/C=C/C1=C(C(=O)O)N2C(=O)[C@@H](NC(=O)[C@H](N)c3ccc(O)cc3)[C@H]2SC1.O [Cefprozil (monohydrate)],12%,14%,,
NC(=O)c1cc[n+](CC2=C(C(=O)[O-])N3C(=O)[C@@H](NC(=O)[C@@H](c4ccccc4)S(=O)(=O)[O-])[C@H]3SC2)cc1.[Na+] [Cefsulodin (sodium)],17%,6%,,
Nc1nc(/C(=C/CC(=O)O)C(=O)N[C@@H]2C(=O)N3C(C(=O)O)=CCS[C@H]23)cs1.O.O [Ceftibuten (dihydrate)],19%,5%,,
CO/N=C(\C(=O)N[C@@H]1C(=O)N2C(C(=O)[O-])=C(CSC(=O)c3ccco3)CS[C@H]12)c1csc(N)n1.[Na+] [Ceftiofur (sodium)],17%,1%,,
